{"source": "patent US20040167164A1", "about": "“Compositions and methods for treating particular chemical addictions and mental illnesses” (priority 1998, published 2004)", "key": {"alcoholism": {"system": "alcoholism", "assay": "Treatment of alcoholic patients", "assay_type": "in vivo, human", "settings": "follow-up 2 to 3 years"}, "[1]": {"system": "homovanilic acid (HVA), a dopamine metabolite", "assay": "Urinary dopamine metabolites during Haloperidol administration", "assay_type": "in vivo, human", "settings": "for dopamine metabolites (HVA) in urine: bipolar, manic and paranoid schizophrenic patients", "description": "While studying human subjects, diagnosed with bipolar illness, the effects of administering Haloperidol on the metabolites of the neurotransmitter dopamine (DA) were analyzed.\nThe urinary studies were done for a period of 6 weeks in eight patients chosen for the study (three manic patients and five schizophrenics of the paranoid type)."}, "[2]": {"system": "morphine addicted monkeys", "assay": "Craving and abstinence syndrome in narcotic-addicted monkeys", "assay_type": "in vivo", "settings": "bar-presses; withdrawal symptoms, aggressive behavior", "text": "Equally the same, at present it is well known that all addictions have in common a biochemical factor—the alteration of the dopamine synthesis and its transporters.\nBased on the above, we further hypothesized that the combination of both agents would render better results than any one of them alone."}, "heroin addiction": {"system": "heroin addiction", "assay": "Case reports, heroin addiction"}, "[3]": {"system": "rats made dependent on alcohol", "assay": "Rats made dependent on alcohol (25% alcohol solution)", "assay_type": "in vivo", "settings": "AMPT 300 mg per kg of body weight", "description": "Subsequently, it was observed that rats made dependent on alcohol (25% alcohol solution) would prefer again to drink plain water, instead of the alcohol solution upon which they had been made dependent, when treated with AMPT (300 mg per kg of body weight), with their preference being manifested after 2-4 days of treatment."}, "[4]": {"system": "tobacco addiction (nicotine)", "assay": "Treatment of smokers (nicotine dependence)", "set-up": "species or system human", "settings": "in vivo", "quoted_text": "Furthermore, the present inventor utilized the combination of Haloperidol and AMPT by administering small doses of Haloperidol, 2 mg, (6 mgs total per day) for a healthy human, weighing 70 kg, simultaneously with the initiation of treatment with AMPT.\nGenerally, the administration of Haloperidol was discontinued after 7-10 days, while AMPT was administered for a period of at least three months in doses of 250 mg b.i.d."}, "[5]": {"system": "rats exposed to cigarette extract and smoke", "assay": "Rats given cigarette extract water and cigarette smoke, choice test", "assay_type": "in vivo", "settings": "after 18 hours", "text": "A cigarette extract was obtained by burning cigarettes and collecting the tar, nicotine, and other products of cigarette combustion by a perforated plastic tube tied to the exhaust of a miniature vacuum cleaner. The air and smoke was passed through a container of water in which the cigarette extract was deposited. This drinking water was subsequently given to the animals. In addition to bottle feeding rats with the cigarette extract water (equivalent to 6 cigarettes per rat per day), the rats were also exposed to cigarette smoke. The rats were exposed for 2 hours at 8 hour intervals, for a total of 6 hours a day, to cigarette smoke in a sealed chamber. After a period of 4 months, 24 animals died of different causes, pneumonia among them, and 66 survived. The remaining 66 animals were divided in two groups: 35 were treated with AMPT orally, and 31 were kept as controls. The urine was alkalinized in both groups with Polycitra to a pH of about 7.8.\nAt the end of 4 months, all rats were given the choice to continue drinking the same cigarette extract contaminated water or drink pure drinking water in equal amounts. All animals were given the choice to be in the cigarette smoke filled chamber or to use clean air quarters. […]"}, "[6]": {"system": "addiction to cocaine plus alcohol", "assay": "16 patient study, patients addicted to cocaine plus alcohol", "assay_type": "in vivo, human", "settings": "three patients", "description": "(§1) Sixteen patients, randomly selected, addicted to heroin, cocaine, or cocaine and alcohol, were assigned to 3 different treatment groups, as follows:\n(§2) a) A group of 6 patients, 3 of them addicted to heroin, and another 3 addicted to cocaine plus alcohol, were treated with AMPT alone.\n(§3) b) Another group of 6 patients, 3 addicted to heroin and another 3 to cocaine plus alcohol, were treated with Haloperidol alone.\n(§4) c) Another group of 4 patients, 2 addicted to heroin and another 2 addicted to cocaine and alcohol, were treated with placebo from the first day of admission.\n(§5) The treatment protocol was as follows:\n(§6) 2) All patients received the same proper amount of the alkalinizer Polycitra to produce a urinary pH around 7.8.\n(§7) 4) All patients started treatment immediately after they arrived before they could develop any signs of withdrawal.\n(§8) 5) Because of the difficulty to fulfill the above requirement of having consumed drugs on the same day of admission, all patients could not be treated simultaneously. This requirement was instated to maintain similarity with many other patients in our general program, where patients are started on treatment immediately after they arrive, even if they arrive immediately after consuming large amounts of the addicting drug(s)."}, "[7]": {"assay_type": "in vivo", "settings": "with Polycitra orally, urine pH about 7.8 to 8", "text": "Once known that AMPT produced crystalluria, which prevented its use in humans, the present inventor conducted research to find a solution to the crystalluria problem. Specifically, this research was directed to provide a composition containing AMPT that could be used in the treatment of patients suffering from different conditions and without the formation of AMPT crystalluria. This was accomplished with extensive research in animals, such as mice, rats, mongrel and beagle dogs, to which AMPT with a urine alkalinizer was administered. The alkalinization was obtained with Polycitra, administered orally, and in an amount to obtain a urine pH of about 7.8 to 8."}, "addiction to heroin": {"system": "addiction to heroin", "description": "as §1, §2, §3, §4, §5, §6, §7, §8"}, "[8]": {"system": "patients with dual disorder", "assay": "Length of hospitalization of treated patients (Table I)", "settings": "human, in vivo"}, "[9]": {"system": "craving and abstinence symptoms", "assay": "Unintentional simple blind study with defective AMPT capsules", "assay_type": "in vivo, human", "settings": "capsules containing less than half the intended amount of AMPT", "text": "Moreover, it was confirmed that the effective agent in abolishing craving and abstinence symptoms in humans was the action of AMPT and none of the other agents given—Akineton or Polycitra—when in our first studies in humans, unknowingly we administered to patients capsules in which the amount of AMPT contained was less than half the amount of AMPT they should have had. The excessive amount of filler (calcium stearate) put in the capsulating machine in order to render the blended mixture more fluid and less compact, given the heavy consistency of the AMPT that was otherwise difficult for incorporation into capsules, was so excessive that it decreased the amount of AMPT in the capsules to less than half of what it should have been.\nOnce we knew the cause of the failure, we started to administer the proper dosage of AMPT. The patients then responded. […] The number of patients treated with different addictions, convinced us that the association of AMPT with Haloperidol produces very outstanding and beneficial results."}}, "note": "“And” between values parts separate entries of the source, which are not always exact repeats. Identical values can stand only once. “Also recorded” adds a separate entry of the source.", "data": [{"smiles": "O=C1CC[C@@]2(O)[C@H]3Cc4ccc(O)c5c4[C@@]2(CCN3CC2CC2)[C@H]1O5", "note": "[Naltrexone]", "values": [{"measurement": "relapse into alcohol at follow-up", "setting": "alcoholism", "value": "none"}]}, {"smiles": "OC(CCN1CCCCC1)(c1ccccc1)C1CC2C=CC1C2", "note": "(stereo not shown) [Akineton]", "values": [{"measurement": "dopamine metabolites (HVA) in urine", "setting": "[1]", "value": "not related to the increase in dopamine metabolites"}]}, {"smiles": "CC(N)(Cc1ccc(O)cc1)C(=O)O", "note": "(stereo not drawn) [AMPT, alpha-methyl-para-tyrosine]", "values": [{"measurement": "craving and manifestations of the abstinence syndrome", "setting": "[2]", "value": "abolition of craving and withdrawal in all animals; also recorded: abolish the craving for morphine and the manifestations of the abstinence syndrome"}, {"measurement": "time to discharge from hospital", "setting": "heroin addiction; case reports 1, 2, 16, 17, 18", "value": "65 days and 78 days"}, {"measurement": "craving and abstinence symptoms", "setting": "heroin addiction; case reports 1, 2, 17, 18", "value": "no abstinence symptoms appearing"}, {"measurement": "relapse to drugs at follow-up", "setting": "heroin addiction; follow-up 14 months to 1½ years", "value": "had not taken any drugs"}, {"measurement": "time until preference for plain water instead of alcohol solution", "setting": "[3]", "value": "2 to 4", "unit": "days"}, {"measurement": "time to almost total cessation of the acute symptoms", "setting": "schizophrenia and mania; Haloperidol 10-15 mg t.i.d. when added", "value": "24 to 30", "unit": "h"}, {"measurement": "relapse of symptoms at follow-up on maintenance", "setting": "schizophrenia and mania; case reports 8, 10, 11, follow-up 1-2 years", "value": "did not have any more phases of mania or depression"}, {"measurement": "time until craving to smoke is lost", "setting": "[4]", "value": "2 to 4 days and 2 to 3 days"}, {"measurement": "choice of chamber", "setting": "[5]", "value": "totally avoiding the smoke filled compartment"}, {"measurement": "choice of drinking water", "setting": "[5]; AMPT orally, discontinued two days in advance", "value": "chose to continue drinking the pure water"}, {"measurement": "day when craving for cocaine started to remit", "setting": "[6]", "value": "fifth day"}, {"measurement": "day when craving for cocaine was totally extinguished", "setting": "[6]", "value": "seventh"}, {"measurement": "safety (autopsy, macroscopic, microscopic, electron-microscopy)", "setting": "[7]", "value": "safety being confirmed by autopsy"}, {"measurement": "day when patients had no craving or abstinence symptoms", "setting": "addiction to heroin; three patients", "value": "sixth day"}, {"measurement": "Average Length of Hospitalization", "setting": "[8]", "value": 47, "unit": "days"}, {"measurement": "Longest Hospitalization", "setting": "[8]", "value": 97, "unit": "days"}, {"measurement": "Shortest Hospitalization", "setting": "[8]", "value": 26, "unit": "days"}, {"measurement": "patient response", "setting": "[9]", "value": "failed to respond"}]}, {"smiles": "O=C(CCCN1CCC(O)(c2ccc(Cl)cc2)CC1)c1ccc(F)cc1", "note": "[Haloperidol, 4-[4-(p-chlorophenyl)-4-hydroxy-piperidino]-4′-fluorobutyrophe]", "values": [{"measurement": "craving and manifestations of the abstinence syndrome", "setting": "[2]", "value": "did not modify the craving"}, {"measurement": "craving for cocaine", "setting": "[6]; up to sixth day", "value": "did not subside"}, {"measurement": "clinical symptoms after a month of treatment", "setting": "[1]; Haloperidol exclusively, up to 60 mg a day, three paranoid and two manic patients", "value": "not totally controlled"}, {"measurement": "dopamine metabolites (HVA) in urine", "setting": "[1]", "value": "increasing; also recorded: increased gradually and quantitatively in urine"}, {"measurement": "time to maximum HVA concentration in urine", "setting": "[1]; continued Haloperidol administration", "value": "3-4 weeks"}, {"measurement": "overall conclusion on treatment of addiction", "setting": "addiction to heroin; 16 patient study, heroin and cocaine plus alcohol", "value": "useless"}, {"measurement": "severity of withdrawal symptoms compared with no treatment agent", "setting": "addiction to heroin; human, in vivo", "value": "more severe"}, {"measurement": "onset of severe manifestations of withdrawal", "setting": "addiction to heroin; three patients", "value": "26 to 30", "unit": "h"}]}]}
